The values that follow come from patent publication US5814634A, “Alkylenediamine derivative anti-ulcer drug and antibacterial drug” (Shiseido Co. Ltd., priority 1996, dated 1998).

Structures are written as SMILES.

One data set can be described thus: in vitro. The note with it: rabbit, gastric mucosal cells.
The next data set relates to stress ulcer. As to the kind of experiment: WIS: Restraint and Water Immersion Stress-Induced Ulcer Inhibition Test. Type of data set: in vivo, rat (male Crj:SD or Slc:SD). The note with it: for WIS: ulcer formation inhibitory rate: 100 mg/kg oral, rats, water immersion stress 7 hours; for effect (anti-ulcer tests): comparison of examples within compound group 1-1. How it is done:
WIS: Restraint and Water Immersion Stress-Induced Ulcer Inhibition Test
The degree of inhibition of the stress ulcer formation is tested.
Male Crj:SD or Slc:SD rats (6 to 7-week-old) were fasted overnight, but allowed free access to water. Each group has 5 to 8 of these rats. The sample compound was dissolved or suspended in an aqueous solution of 0.3% sodium carboxymethylcellulose or 0.05% Tween 80 and then was orally administered (100 mg/10 ml/kg). To a control group, the vehicle was administered. 10 minutes later, the rats were placed in a stress cage and immersed to the level of xipfoid process in a water bath (21° C.) for 7 hours. At the end of the stress, the rats were sacrificed by inhalation of ether or carbon dioxide. Then, the stomach of each was removed, inflated by injecting 10 ml of 5% formalin neutral buffer solution, and immersed in 1% formalin neutral buffer solution for 30 minutes or more to be fixed. The stomach was incised along the greater curvature and then the length of each erosion in the glandular portion was determined under dissecting microscope. The sum of the length of erosions per stomach was defined as ulcer index (UI).
The effect obtained when 100 mg/kg of the sample compound had been administered was expressed as ulcer formation inhibitory rate (%) as follows: [formula] VOL, TAO: Acid Secretion Inhibition Test In Vivo i) Meaning

For data set [1], the system named is isolated gastric fundic gland. As to the kind of experiment: CAP: Acid Secretion Inhibition Test In Vitro ([14C]-aminopyrine uptake). As to conditions: Oryctolagus cuniculus, 40 min; 10^-5 M compound, 10^-5 M histamine, rabbit isolated gastric fundic gland, 37° C., 40 minutes; read-out: CAP: acid secretion inhibitory rate. The data set is classed as cell-based, rabbit (male Japanese White). On the procedure:
With respect to the gastric juice volume (VOL) and the total acid output (TAO), the effects obtained when 100 mg/kg of the sample compound had been administered were expressed as their respective inhibitory rates (%) as follows: [formula] CAP: Acid Secretion Inhibition Test In Vitro i) Meaning
The acid secretion inhibitory activity in a cell level is studied. It can also be used for studying the mechanism of the effect.
ii-a) Preparation of isolated gastric fundus gland suspension
First, an isolated gastric fundic gland sample was prepared. […] Immediately thereafter, the stomach was removed and, after its pyloric and cardiac antrum were severed, incised along its greater curvature into two sheets. The gastric contents adhering to the mucosal surface was washed out with ice-cooled PBS (-) and then carefully washed therein. The gastric wall was spread on a cork board with its mucosal surface facing up and the feed and mucus thereon were completely removed with sterile gauze. The mucosa was separated therefrom by a spatula and then collected in ice-cooled PBS (-). After being washed twice with PBS (-), the mucosa was minced into 2-3 mm^3 pieces by scissors. These pieces were further washed twice with a nutrient solution. The nutrient solution comprises 132.4 mM of NaCl, 5.4 mM of KCl, 5 mM of Na2 HPO4.12H2 O, 1 mM of NaH2 PO4.2H2 O, 1.2 mM of MgSO4, 1 mM of CaCl2, 25 mM of HEPES, 2 mg/ml of glucose, and 1 mg/ml of BSA. Into 70 ml of the nutrient solution containing 1 mg/ml of collagenase, minced mucosal pieces were dispersed and intensely stirred in a conical flask with a stirrer at 37° C. for 40 to 60 minutes. During this period, 100% O2 was sprayed on the nutrient solution surface and the pH was appropriately measured such that it was immediately adjusted to pH 7.4, when the value was therebelow, with a base. The nutrient solution was added to the reaction solution so as to attain the total amount of about 200 ml. After being filtered through a mesh, the suspension was divisionally introduced into 50 ml centrifuge tubes and left for 15 minutes such that gastric fundic gland was deposited. The supernatant was repeatedly removed by an aspirator, dispersed in the nutrient solution, and then left such that the gastric fundic gland was washed three times. At this time, without using a pipette, the suspension was alternately introduced into two centrifuge tubes so as to effect dispersion. The number of cells was counted under microscope and adjusted to 1.6×10^6 cells/ml.
ii-b) [^14 C]-aminopyrine uptake test
Then, [^14 C]-aminopyrine uptake test was performed. After an Eppendorf tube was weighed, 10 μl (final concentration: 10^-5 M) of histamine dissolved in the above-mentioned nutrient solution, 10 μl (final concentration: 10^-5 M) of the test compound dissolved in DMSO, and 10 μl (final concentration: 0.05 μCi/ml) of [^14 C]-aminopyrine diluted with the nutrient solution were introduced therein and then 970 μl of the isolated gastric fundic gland suspension prepared above was added thereto. Subsequently, this mixture was shaken at 37° C. for 40 minutes at 125 cycles/minute. After being centrifuged for 30 minutes, 200 μl of its supernatant was collected into a mini-vial, while the rest was removed by an aspirator. The gland pellet was completely dried as the tube with its lid being opened was kept for one night in a drying oven at 80° C. and then the lid was closed and the weight was determined at room temperature. Then 100 μl of 1N KOH was added thereto and the tube with its lid being closed was treated at 60° C. for 1 to 2 hours so as to dissolve the pellet. Then, the contents thereof were transferred to a mini-vial. Into the mini-vial containing the supernatant or gland pellet, 4 ml of Atomlite™ was added and then the radioactivity was measured by a liquid scintillation counter. […]

With `CC(C)=CCC/C(C)=C/COc1ccccc1C(=O)NCCN1CCCCC1` [Example 5], in the data set “in vitro”, the cytotoxicity at 4 h, 100 µM was found to be 21%. The “WIS: ulcer formation inhibitory rate” value with stress ulcer is reported as 78%.
On to `CC(C)=CCC/C(C)=C/COc1ccc(C(=O)NCCN2CCOCC2)c(OC/C=C(\C)CCC=C(C)C)c1` [Example 37], for which the “WIS: ulcer formation inhibitory rate” value in the data set with stress ulcer came to 71%.
Turning to `COc1cc(C(=O)NCCN2CCCCC2)cc(OC)c1OC/C=C(\C)CCC=C(C)C` [Example 26], in “in vitro”, the cytotoxicity at 4 h, 100 µM came out at 17%. For the same compound, the “WIS: ulcer formation inhibitory rate” value with stress ulcer amounted to 72%. In addition, in the data set with stress ulcer (result in words), the anti-ulcer effect entry is recorded as “more anti-ulcer effect”.
`COc1cccc(C(=O)NCCN2CCCCC2)c1OC/C=C(\C)CCC=C(C)C` [Example 21]: the cytotoxicity at 4 h, 100 µM in the data set “in vitro” was 12%. Further, the “WIS: ulcer formation inhibitory rate” value in the data set with stress ulcer is on record as 68%.
Consider `COc1cc(C(=O)NCCN2CCOCC2)cc(OC)c1OCC=C(C)C` [Example 41], for which the “WIS: ulcer formation inhibitory rate” value in the data set on stress ulcer was found to be 39%.
On to `CC(C)=CCOc1ccc(C(=O)NCCN2CCCCC2)c(OCC=C(C)C)c1` [Example 16], for which the cytotoxicity at 4 h, 100 µM in “in vitro” came to 18%. In addition, in the data set on stress ulcer, the “WIS: ulcer formation inhibitory rate” value was determined as 59%.
For `CC(C)=CCC/C(C)=C/COc1ccc(C(=O)NCCN2CCN(c3ncccn3)CC2)cc1` [Example 61], the cytotoxicity at 4 h, 100 µM in the data set “in vitro” came out at 3%. In data set [1], the inhibition at 10 µM was determined as 100%.
With `CC(C)=CCC/C(C)=C/COc1ccc(C(=O)NCCN2CCN(Cc3ccccc3)CC2)cc1` [Example 56], the inhibition at 10 µM in data set [1] was found to be 99.4%.
For `CC(C)=CCC/C(C)=C/COc1ccc(C(=O)NCCN2CCN(CCC(C)C)CC2)cc1` [Example 47], the inhibition at 10 µM in data set [1] turned out to be 101%.
`CC(C)=CCC/C(C)=C/COc1ccc(C(=O)NCCN2CCN(c3ccccc3)CC2)cc1` [Example 52]: the cytotoxicity at 4 h, 100 µM in the data set “in vitro” stood at 11%. Moreover, the inhibition at 10 µM in data set [1] turned out to be 99.1%.
For `CC(C)=CCC/C(C)=C/COc1ccc(C(=O)NCCN2CCN(CC(C)(C)C)CC2)cc1` [Example 48], the inhibition at 10 µM in data set [1] is 100%.
On to `COc1ccc(C(=O)NCCN2CCCCC2)c(OC/C=C(\C)CCC=C(C)C)c1` [Example 22], for which the cytotoxicity at 4 h, 100 µM in “in vitro” is 44%. The “WIS: ulcer formation inhibitory rate” value in the data set on stress ulcer is reported as 39%.
For `CCN(CCN1CCCCC1)C(=O)c1ccc(OC/C=C(\C)CCC=C(C)C)cc1` [Example 8], in the data set “in vitro”, the cytotoxicity at 4 h, 100 µM turned out to be 41%. Besides, the inhibition at 10 µM in data set [1] worked out at 100%. The “WIS: ulcer formation inhibitory rate” value with stress ulcer is reported as 67%. In addition, the “effect (anti-ulcer tests)” value with stress ulcer (result in words) is reported as “a sufficient effect can be obtained”.
Consider `CC(C)=CCC/C(C)=C/COc1ccc(C(=O)NCCN2CCCC(C)(C)C2)cc1` [Example 9], for which, in the data set on stress ulcer, the “WIS: ulcer formation inhibitory rate” value came to 67%. The “effect (anti-ulcer tests)” value in the data set with stress ulcer (result in words) is given as “a sufficient effect can be obtained”.
As for `CC(C)=CCC/C(C)=C/COc1ccc(C(=O)NCCN2CCN(CC(=O)NC(C)C)CC2)cc1` [Example 54], the inhibition at 10 µM in data set [1] was determined as 100%.
For `CC(C)=CCC/C(C)=C/COc1cc(OC/C=C(\C)CCC=C(C)C)cc(C(=O)NCCN2CCOCC2)c1` [Example 38], the cytotoxicity at 4 h, 100 µM in “in vitro” is -12%. Moreover, the “WIS: ulcer formation inhibitory rate” value in the data set with stress ulcer is given as 55%.
For the compound `COc1ccc(N2CCN(CCNC(=O)c3ccc(OC/C=C(\C)CCC=C(C)C)cc3)CC2)cc1` [Example 53], in “in vitro”, the cytotoxicity at 4 h, 100 µM stood at 7%. Also, the inhibition at 10 µM in data set [1] came out at 98.7%.
`CC(C)=CCC/C(C)=C/CSc1ccccc1C(=O)NCCN1CCOCC1` [Example 33]: in the data set “in vitro”, the cytotoxicity at 4 h, 100 µM is 5%. The inhibition at 10 µM in data set [1] stood at 100%. The “WIS: ulcer formation inhibitory rate” value in the data set on stress ulcer was found to be 49%.
For the compound `CC(C)=CCOc1ccc(C(=O)NCCN2CCCCC2)cc1` [Example 1], the cytotoxicity at 4 h, 100 µM in “in vitro” came to 1%. In the data set on stress ulcer, the “WIS: ulcer formation inhibitory rate” value turned out to be 67%.
`CC(C)=CCC/C(C)=C/CSc1ccccc1C(=O)NCCN1CCCCC1` [Example 7]: in the data set with stress ulcer, the “WIS: ulcer formation inhibitory rate” value is given as 87%. For the same compound, the “effect (anti-ulcer tests)” value in the data set with stress ulcer (result in words) was “the effect has been maintained”.
Regarding `CC(C)=CCC/C(C)=C/COc1ccc(C(=O)NCCN2CCN(Cc3ccc(F)cc3)CC2)cc1` [Example 57], the inhibition at 10 µM in data set [1] was found to be 99.4%.
Take `CCN1CCN(CCNC(=O)c2ccc(OC/C=C(\C)CCC=C(C)C)cc2)CC1` [Example 45]: the cytotoxicity at 4 h, 100 µM in “in vitro” came to 30%. Further, the inhibition at 10 µM in data set [1] is 99%. For the same compound, the “WIS: ulcer formation inhibitory rate” value in the data set on stress ulcer amounted to 36%.
As for `CC(C)=CCC/C(C)=C/COc1ccc(C(=O)NCCN2CCN(c3nccs3)CC2)cc1` [Example 60], the cytotoxicity at 4 h, 100 µM in “in vitro” amounted to 7%. Also, in data set [1], the inhibition at 10 µM was 100%.
As for `COc1ccc(OC/C=C(\C)CCC=C(C)C)c(C(=O)NCCN2CCOCC2)c1` [Example 40], the “WIS: ulcer formation inhibitory rate” value with stress ulcer was found to be 70%.
With `CCC(CC)CN1CCN(CCNC(=O)c2ccc(OC/C=C(\C)CCC=C(C)C)cc2)CC1` [Example 49], in data set [1], the inhibition at 10 µM came out at 99.8%.
Take `CC(C)=CCC/C(C)=C/COc1ccc(C(=O)NCCN2CCOCC2)cc1OC/C=C(\C)CCC=C(C)C` [Example 36]: the “WIS: ulcer formation inhibitory rate” value in the data set with stress ulcer was 39%.
Take `CC(C)=CCC/C(C)=C/COc1ccccc1C(=O)NCCN1CCOCC1` [Example 30]: in the data set with stress ulcer, the “WIS: ulcer formation inhibitory rate” value is 68%.
Turning to `CCCCN1CCN(CCNC(=O)c2ccc(OC/C=C(\C)CCC=C(C)C)cc2)CC1` [Example 50], the inhibition at 10 µM in data set [1] was 95.9%.
`CC(C)=CCC/C(C)=C/COc1ccc(C(=O)NCCN2CCCCC2)c(OC/C=C(\C)CCC=C(C)C)c1` [Example 12]: in the data set “in vitro”, the cytotoxicity at 4 h, 100 µM turned out to be 38%. In addition, the “WIS: ulcer formation inhibitory rate” value in the data set on stress ulcer is given as 75%.
With `CC(C)=CCC/C(C)=C/COc1ccc(C(=O)NCCN2CCN(Cc3ccc4c(c3)OCO4)CC2)cc1` [Example 58], in data set [1], the inhibition at 10 µM is 100%. For the same compound, in the data set with stress ulcer, the “WIS: ulcer formation inhibitory rate” value came out at 48%.
Take `CC(C)=CCOc1cc(OCC=C(C)C)cc(C(=O)NCCN2CCCCC2)c1` [Example 18]: the cytotoxicity at 4 h, 100 µM in the data set “in vitro” was determined as 33%. In the data set with stress ulcer, the “WIS: ulcer formation inhibitory rate” value worked out at 40%.
Take `CC(C)=CCOc1ccc(C(=O)NCCN2CCCCC2)cc1OCC=C(C)C` [Example 15]: the cytotoxicity at 4 h, 100 µM in the data set “in vitro” is 17%. In addition, the “WIS: ulcer formation inhibitory rate” value with stress ulcer is given as 89%.
With `CCCCC(CC)CN1CCN(CCNC(=O)c2ccc(OC/C=C(\C)CCC=C(C)C)cc2)CC1` (stereo not shown) [Example 51], in data set [1], the inhibition at 10 µM came to 94.8%.
